Legend:
human SSTR2 = target: T1, human SSTR2 (Homo sapiens, UniProt P30874); assay: Evaluation of SSTR2 agonistic activity using cells expressing human SSTR2 (suppression of forskolin-stimulated cAMP production, SSTR2-CHO-K1); format: cell-based
T1 construct: Myc; expressed in transfected cells
Experimental: Evaluation of SSTR2 Agonistic Activity Using Cells Expressing Human SSTR2
(1) Isolation of Human SSTR2 Gene
Human brain cDNA was purchased from Ambion (catalogue No.: 7962; Lot No.: 040200121). PCR primers, hSSTR2_F1_XhoI: 5′-[…]-3′ (SEQ ID NO: 1) and hSSTR2_R1_EcoRI: 5′-[…]-3′ (SEQ ID NO: 2) were designed on the basis of the sequence GenBank NM_001050.
PCR reaction (95° C. for 2 min.→[98° C. for 10 sec., 60° C. for 30 sec. and 68° C. for 90 sec.]×30 cycles) was carried out using the human brain cDNA as a template and using KOD-plus-(TOYOBO Co., Ltd.). The amplified PCR product was subjected to 1% agarose gel electrophoresis, purified using QIAquick Gel Extraction Kit (QIAGEN) and digested with restriction enzymes XhoI and EcoRI. The digested fragments were ligated to an expression vector (pIRESneo-Myc) using the DNA Ligation Kit Ver. 2 (Takara) and used for transformation of E. coli DH5a. The plasmid pIRESneo-Myc/hSSTR2 was prepared and the DNA sequence thereof was confirmed.
(2) Culture of CHO-K1 Cells
CHO-K1 (−) was cultured in Ham's F-12 medium (containing foetal bovine serum (10%), penicillin (100 U/mL) and streptomycin (0.1 mg/mL)). The transduced cells were cultured in the same medium supplemented with Geneticin (1 mg/mL).
(3) Transduction of CHO-K1 Cells
CHO-K1(−) cells were transduced with the plasmid pIRESneo-Myc/hSSTR2 using Lipofectamine 2000 (Invitrogen). After 48 hours, selection was carried out by replacing the medium with the one containing 1 mg/mL of Geneticin to establish a stable overexpressing cell line (SSTR2-CHO-K1).
(4) Evaluation of SSTR2 Agonistic Activity
The human SSTR2 agonistic activity of a test compound was evaluated according to the following procedures by using a suppression activity of intracellular cyclic AMP (cAMP) production by forskolin stimulation as an index. SSTR2-CHO-K1 cells suspended in Ham's F-12 medium (containing foetal bovine serum (10%), penicillin (100 U/mL) and streptomycin (0.1 mg/mL)) supplemented with 0.25 mg/mL of Geneticin were inoculated into a 96-well plate at a density of 4.0×10^4 cells/0.1 mL per well. On the next day, the medium was removed and washed twice with 0.1 mL of wash buffer [0.1% bovine serum albumin (BSA), 20 mmol/L 4-(2-hydroxyethyl)-1-piperazineethane sulphonic acid (HEPES)-containing Hank's balanced salt solution (HBSS)]. An assay buffer [[…] 3-isobutyl-1-methylxanthine (IBMX), 0.1% BSA, 20 mmol/L HEPES-containing HBSS] was added to the wells at 0.06 mL per well and the plate was incubated for 15 minutes under the conditions of 5% carbon dioxide and 37° C. Thereafter, an assay buffer containing a test compound at a concentration twice as high as the final concentration and 0.02 mmol/L of forskolin was added to wells at 0.06 mL per well and the plate was incubated for 30 minutes under the conditions of 5% carbon dioxide and 37° C. Thereafter, the Assay/Lysis buffer included in the cAMP-Screen® kit (available from Applied Biosystems) was added to wells at 0.12 mL per well and the plate was incubated for 30 minutes under the conditions of 5% carbon dioxide and 37° C. The concentration of cAMP in samples were measured by ELISA according to the instruction of the kit.

[1] = tested on: growth hormone (GH) secretion; assay: Evaluation of suppression of growth hormone (GH) secretion using rats (GHRH-induced); format: in vivo; conditions: Rattus norvegicus, Procedure (B): oral administration 8 hours beforehand, 1 mg/kg, read-out: percentage of suppression of GH secretion
Experimental: Evaluation of Suppression of Growth Hormone (GH) Secretion Using Rats
[Procedure (A): Administration of a Test Compound 30 Minutes Beforehand]
A medium (distilled water (Otsuka distilled water, Otsuka Pharmaceutical Factory, […]) IGS rats (Charles River Laboratories Japan, Inc.)) and after 27 minutes, the animals were administered with 50 mg/kg of pentobarbital sodium (Somnopentyl, Kyoritsu Seiyaku Corporation) via the tail vein for anaesthesia. Three minutes after administration of pentobarbital sodium, the rats were administered with 0.01 mg/kg of growth hormone-releasing hormone (GHRH, Bachem) via the tail vein to induce GH secretion. In order to measure the blood GH concentration, 0.2 mL of blood was collected through the jugular vein at 5 minutes after administration of GHRH. The collected blood was centrifuged at 4° C., 13,000×g for 5 minutes to obtain plasma. The blood GH concentration was measured by using Rat/Mouse Growth Hormone ELISA (Millipore) following the instruction of the kit. The percentage (%) of suppression of GH secretion was determined by using the obtained blood GH concentration and the equation {[suppression (%) of GH secretion]=([blood GH concentration of the group administered with the medium]−[blood GH concentration of the group administered with a test compound])/[blood GH concentration of the group administered with the medium]×100}. In the equation, the group administered with the medium represents the group of animals administered with the medium and the group administered with a test compound represents the group of animals administered with a test compound dissolved in the medium.
[Procedure (B): Administration of a Test Compound 8 Hours Beforehand]
A medium (distilled water (Otsuka distilled water, Otsuka Pharmaceutical Factory, […]) IGS rats (Charles River Laboratories Japan, Inc.)) and after 7 hours and 57 minutes, the animals were administered with 50 mg/kg of pentobarbital sodium (Somnopentyl, Kyoritsu Seiyaku Corporation) via the tail vein for anaesthesia. Three minutes after administration of pentobarbital sodium, the rats were administered with 0.01 mg/kg of growth hormone-releasing hormone (GHRH, Bachem) via the tail vein to induce GH secretion. The rest of the procedure is the same as in [Procedure (A)] described above.

[2] = Evaluation of cytotoxicity using cultured human hepatocytes (intracellular ATP); format: cell-based; conditions: read-out: IC50 of cytotoxicity (concentration at which 50% of the luminescence is suppressed)
Experimental: Evaluation of Cytotoxicity Using Cultured Human Hepatocytes
Frozen adhesive human hepatocytes were thawed, suspended in a hepatocellular medium (HCM) purchased from Lonza and inoculated to a 96-well plate coated with collagen. The culture medium of the hepatocytes cultured overnight in an incubator (5% carbon dioxide, 95% air, 37° C.) was exchanged to the medium containing a test compound at a concentration of 0, 12.5, 25, 50, 100, 200 or 400 (×10^−6 mol/L) and the cells were further cultured for 24 hours. Cytotoxicity was evaluated by measuring the intracellular ATP concentration. Specifically, using the Promega Celltiter-Glo luminescent assay kit available from Promega, cells were lysed in the assay buffer included in the kit and the concentration of ATP released from the cells was measured according to the luminescence resulting from luciferin-luciferase enzyme activity. The luminescence was measured on the SpectraMax plate reader from Molecular Devices. The extent of cytotoxicity of a test compound is represented by the concentration (IC50) of the compound at which 50% of the luminescence is suppressed.

[3] = Human hepatic microsome stability test; format: in vitro ADME; conditions: human hepatic microsomes 1 mg/mL; 60 minutes; test compound 0.001 mmol/L; 37° C.
Experimental: Human Hepatic Microsome Stability Test
To a reaction vessel heated to 37° C. in a water bath, 0.392 mL of phosphate buffer (0.1 mol/L, pH 7.4) containing human hepatic microsomes (1 mg/mL, Xenotech) and NADPH-Co-factor (NADP+1.3 mmol/L, BD-Bioscience) was added and pre-incubated for 5 minutes. A 50% acetonitrile solution (0.008 mL) containing 0.05 mmol/L of a test compound was added thereto to initiate the enzyme reaction (final concentration of the test compound: 0.001 mmol/L). Immediately after initiation of the reaction and at 60 minutes thereafter, 0.050 mL of the reaction solution was respectively collected, which was immediately added to an acetonitrile solution (0.2 mL) containing an internal standard (45 nmol/L, 1-[3-(3,5-dimethylphenyl)-4-quinolinyl]-4-piperidineamine) to terminate the enzyme reaction.
The residual rate (%), which is indicative of stability of the test compound, was calculated using the ratio of peak areas between the test compound and the internal substance determined by LC/MS/MS (TSQ Quantum Discovery MAX, Thermo) analysis of the sample thus prepared by the above procedures followed by filtration, and the equation: {[residual rate (%)=[peak area of a test compound in a sample at 60 minutes after initiation of the reaction/peak area of the internal standard]/[peak area of the test compound in the sample immediately after initiation of the reaction/peak area of the internal standard]×100}.

T1 sequence (P30874 whole entry): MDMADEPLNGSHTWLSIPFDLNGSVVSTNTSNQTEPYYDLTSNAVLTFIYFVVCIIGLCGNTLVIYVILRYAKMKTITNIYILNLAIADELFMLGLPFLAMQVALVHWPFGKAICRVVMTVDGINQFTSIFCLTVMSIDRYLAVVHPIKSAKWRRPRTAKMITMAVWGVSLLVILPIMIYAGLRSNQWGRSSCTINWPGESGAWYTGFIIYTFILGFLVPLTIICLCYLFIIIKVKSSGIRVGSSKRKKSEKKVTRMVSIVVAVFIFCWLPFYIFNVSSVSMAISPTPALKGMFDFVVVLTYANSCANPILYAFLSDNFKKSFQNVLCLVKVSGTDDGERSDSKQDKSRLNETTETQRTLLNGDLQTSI

EC50 (human SSTR2) [pM] | residual rate [3] [%] | SMILES | inhibition in vivo at 1 mg/kg [1] [%] | IC50 at 24 h [2] [µM]
110 | 50.3 | NC1CCN(c2c(/C=C/c3cccc(Cl)c3)cncc2-c2cc(F)cc(Cl)c2)CC1 [Example 3(1), 1-{3-(3-chloro-5-fluorophenyl)-5-[(E)-2-(3-chlorophenyl)vinyl]-4-pyridinyl}-4-piperidineamine] | 86 | 19
97 | 48.4 | Fc1cccc(/C=C/c2cncc(-c3cc(Cl)cc(Cl)c3)c2N2CC[C@@H]3NCCO[C@H]3C2)c1 [Example 3(2), (4aS,8aS)-6-{3-(3,5-dichlorophenyl)-5-[(E)-2-(3-fluorophenyl)vinyl]-4-pyridinyl}octahydro-1H-pyrido[3,4-b][1,4]oxazine] | 84 | 17
40 | 85.2 | C/C(=C\c1cncc(-c2cc(Cl)cc(Cl)c2)c1N1CCC(N)CC1)c1cccc(F)c1 [Example 3, 1-{3-(3,5-dichlorophenyl)-5-[(1E)-2-(3-fluorophenyl)-1-propen-1-yl]-4-pyridinyl}-4-piperidineamine] | 88 | 36
34 | 100.0 | C/C(=C\c1cncc(-c2cc(Cl)cc(Cl)c2)c1N1CCC(N)CC1)c1cccc(C#N)c1 [Example 4, 3-{(1E)-1-[4-(4-amino-1-piperidinyl)-5-(3,5-dichlorophenyl)-3-pyridinyl]-1-propen-2-yl}benzonitrile] | 84 | 17
45 | 57.6 | CCNC1CCN(c2c(-c3ccc(C(F)(F)F)cc3)cncc2-c2cc(Cl)cc(Cl)c2)CC1 [Example 5(1), 1-{3-(3,5-dichlorophenyl)-5-[4-(trifluoromethyl)phenyl]-4-pyridinyl}-N-ethyl-4-piperidineamine] | 90 | 18
36 | 80.3 | CCNC1CCN(c2c(-c3ccc(C4(C#N)CC4)cc3)cncc2-c2cc(Cl)cc(Cl)c2)CC1 [Example 5(2), 1-(4-{5-(3,5-dichlorophenyl)-4-[4-(ethylamino)-1-piperidinyl]-3-pyridinyl}phenyl)cyclopropanecarbonitrile] | 90 | 22
28 | 67.7 | CCNC1CCN(c2c(-c3ccc(OC(F)F)cc3)cncc2-c2cc(Cl)cc(Cl)c2)CC1 [Example 5(3), 1-{3-(3,5-dichlorophenyl)-5-[4-(difluoromethoxy)phenyl]-4-pyridinyl}-N-ethyl-4-piperidineamine] | 96 | 10
21 | 74.9 | CCNC1CCN(c2c(-c3ccc(C(C)(C)C#N)cc3)cncc2-c2cc(Cl)cc(Cl)c2)CC1 [Example 5(4), 2-(4-{5-(3,5-dichlorophenyl)-4-[4-(ethylamino)-1-piperidinyl]-3-pyridinyl}phenyl)-2-methylpropanenitrile] | 89 | 17
71 | 88.6 | CCNC1CCN(c2c(/C=C(\C)c3cccc(F)c3)cncc2-c2cc(Cl)cc(Cl)c2)CC1 [Example 5(5), 1-{3-(3,5-dichlorophenyl)-5-[(1E)-2-(3-fluorophenyl)-1-propen-1-yl]-4-pyridinyl}-N-ethyl-4-piperidineamine] | 85 | 17
48 | 83.9 | CCNC1CCN(c2c(/C=C/c3cccc(C#N)c3)cncc2-c2cc(Cl)cc(Cl)c2)CC1 [Example 5(6), 3-[(E)-2-{5-(3,5-dichlorophenyl)-4-[4-(ethylamino)-1-piperidinyl]-3-pyridinyl}vinyl]benzonitrile] | 89 | 18
47 | 79.7 | CCNC1CCN(c2c(/C=C(\C)c3cccc(C#N)c3)cncc2-c2cc(Cl)cc(Cl)c2)CC1 [Example 5, 3-[(1E)-1-{5-(3,5-dichlorophenyl)-4-[4-(ethylamino)-1-piperidinyl]-3-pyridinyl}-1-propen-2-yl]benzonitrile] | 90 | 18

From patent publication US9643951B2, “Compound having somatostatin receptor agonistic activity and pharmaceutical use thereof” (ONO PHARMACEUTICAL CO., LTD., priority 2013, dated 2017)
